Measurements as given in patent US5464826A, “Method of treating tumors in mammals with 2',2'-difluoronucleosides” (Eli Lilly and Company, priority 1994, dated 1995).

Key:
[1] = tested on: L1210V lymphocytic leukemia; test: L1210V Lymphocytic Leukemia Tumor System; type: in vivo, mice; settings: for Indefinite Survivors: 45 day survivors; for Toxic Deaths: deaths/mice in group
Method: The study testing the efficacy of these compounds against L1210V leukemia was initiated by an IP inoculation of 1×10^6 cells. Treatment was begun 24 hours after inoculation. The response to therapy was determined by comparing the mean life span of the ten treated animals to that of the ten control animals; prolongation of life in the treated animals beyond that of controls is expressed as a percentage. In the Table, column 1 gives the example number of the compound tested; column 2, the experiment number; column 3, the dose level of the compound in mg/kg; column 4, the route of administration; column 5, the dosage schedule, that is, the days on which the compound was administered to the mice; column 6, the average increase in life span of the treated mice as compared to the control mice; column 7, the toxic deaths over the number of mice in each group; and column 8, the indefinite survivors, that is, the number of 45 day survivors in each group.

6C3HED lymphosarcoma = 6C3HED lymphosarcoma tumor model; type: in vivo, mice (C3H); settings: IP
From the text: 6C3HED--The 6C3HED lymphosarcoma was obtained in 1979 from the Division of Cancer Treatment, N.C.I., tumor bank maintained at E.G. and G. Mason Research (Worchester, Mass.). First passage tumor was stored in liquid nitrogen using standard techniques. The transplanted tumor was re-established from the tumor bank every six months or as needed. The tumor is maintained by serial passage twice weekly in C3H mice (Charles River; Wilmington, Mass.).
(§1) The tumor was removed from passage animals and minced into 1 to 3 mm square fragments using sterile techniques. Tumor pieces were checked for sterility using both Antibiotic Medium 1 and Brain Heart Infusion (Difco; Detroit, Mich.). Recipient mice were shaved and tumor pieces were implanted subcutaneously in the axillary region by trocar. Drug therapy on the appropriate schedule was initiated on the day after tumor implant. The compound was dissolved in saline for all experiments. All animals were weighed at the beginning and end of drug treatment. Food and water were provided ad libitum. On days 10 to 12, two dimensional measurements (width and length) of all tumors were taken using vernier calipers. Tumor weights were calculated from these measurements using the following formula:
(§2) Tumor Weight (mg)=Tumor Length (mm)×Tumor Width (mm)^2 /2
(§3) For all data, the tumor weight was rounded to the nearest tenth of a gram for analysis. No group is included in the analysis for therapeutic activity in which deaths attributable to drug toxicity exceeded 30 percent of the treated group.
(§4) In Table 3 which follows, column 1 gives the example number of the compound tested; column 2 provides the tumor system; column 3, the dose level; column 4, the route administered; column 5, the dosage schedule; column 6, the percent inhibition of the tumor; and column 7, the toxic deaths observed prior to completion of the study.

[2] = tested on: X5563 plasma cell myeloma; test: X5563 plasma cell myeloma tumor model; type: in vivo, mice (C3H); settings: IP, Days 1,5,9
From the text: X5563 Myeloma--the tumor is maintained in C3H mice.
as §1, §2, §3, §4

[3] = Experiment 1, 1.25 mg/kg, IP, Days 1,5,9
[4] = Experiment 1, 2.5 mg/kg, IP, Days 1,5,9
[5] = Experiment 1, 5.0 mg/kg, IP, Days 1,5,9
[6] = Experiment 1, 10.0 mg/kg, IP, Days 1,5,9
[7] = Experiment 1, 20.0 mg/kg, IP, Days 1,5,9
[8] = Experiment 2, 0.5 mg/kg, IP, Daily for 10 Days
[9] = Experiment 2, 1.0 mg/kg, IP, Daily for 10 Days
[10] = Experiment 2, 2.0 mg/kg, IP, Daily for 10 Days
[11] = Experiment 3, 25.0 mg/kg, IP, Day 1 only
[12] = Experiment 3, 50.0 mg/kg, IP, Day 1 only
[13] = Experiment 3, 100.0 mg/kg, IP, Day 1 only
[14] = Experiment 3, 200.0 mg/kg, IP, Day 1 only
[15] = Experiment 4, 0.5 mg/kg, PO, Daily for 10 days
[16] = Experiment 4, 1.0 mg/kg, PO, Daily for 10 days
[17] = Experiment 4, 2.0 mg/kg, PO, Daily for 10 days
[18] = Experiment 4, 4.0 mg/kg, PO, Daily for 10 days
[19] = Experiment 5, 0.5 mg/kg, IP, Daily for 9 days
[20] = Experiment 5, 1.0 mg/kg, IP, Daily for 9 days
[21] = Experiment 5, 2.0 mg/kg, IP, Daily for 9 days
[22] = Experiment 5, 4.0 mg/kg, IP, Daily for 9 days

Question: With `Nc1ccn(C2O[C@H](CO)[C@@H](O)C2(F)F)c(=O)n1` (stereo partly shown) [Example 1, 1-(4-Amino-2-oxo-1H-pyrimidin-1-yl)-2-desoxy-2,2-difluororibose] as the compound, how does the “Percent Increase Life Span” value [1, 3] read?
Answer: 50%

Question: And the “Indefinite Survivors” value [1, 3]?
Answer: 0

Question: What about the “Toxic Deaths” value [1, 3] of the same compound?
Answer: 0/10

Question: What about the “Percent Increase Life Span” value [1, 4] of the same compound?
Answer: 60%

Question: What about the “Indefinite Survivors” value [1, 4] of the same compound?
Answer: 0

Question: And the “Toxic Deaths” value [1, 4]?
Answer: 0/10

Question: And the “Percent Increase Life Span” value [1, 5]?
Answer: 66%

Question: And the “Indefinite Survivors” value [1, 5]?
Answer: 0

Question: What about the “Toxic Deaths” value [1, 5] of the same compound?
Answer: 0/10

Question: What about the “Percent Increase Life Span” value [1, 6] of the same compound?
Answer: 66%

Question: What about the “Indefinite Survivors” value [1, 6] of the same compound?
Answer: 0

Question: And the “Toxic Deaths” value [1, 6]?
Answer: 1/10

Question: And the “Percent Increase Life Span” value [1, 7]?
Answer: 60%

Question: And the “Indefinite Survivors” value [1, 7]?
Answer: 0

Question: And the “Toxic Deaths” value [1, 7]?
Answer: 0/10

Question: What about the “Percent Increase Life Span” value [1, 8] of the same compound?
Answer: 13%

Question: And the “Indefinite Survivors” value [1, 8]?
Answer: 0

Question: And the “Toxic Deaths” value [1, 8]?
Answer: 0/10

Question: What about the “Percent Increase Life Span” value [1, 9] of the same compound?
Answer: 0%

Question: What about the “Indefinite Survivors” value [1, 9] of the same compound?
Answer: 0

Question: What about the “Toxic Deaths” value [1, 9] of the same compound?
Answer: 0/10

Question: And the “Percent Increase Life Span” value [1, 10]?
Answer: 0%

Question: And the “Indefinite Survivors” value [1, 10]?
Answer: 0

Question: And the “Toxic Deaths” value [1, 10]?
Answer: 0/10

Question: What about the “Percent Increase Life Span” value [1, 11] of the same compound?
Answer: 23%

Question: What about the “Indefinite Survivors” value [1, 11] of the same compound?
Answer: 0

Question: What about the “Toxic Deaths” value [1, 11] of the same compound?
Answer: 0/10

Question: And the “Percent Increase Life Span” value [1, 12]?
Answer: 30%

Question: What about the “Indefinite Survivors” value [1, 12] of the same compound?
Answer: 0

Question: What about the “Toxic Deaths” value [1, 12] of the same compound?
Answer: 0/10

Question: What about the “Percent Increase Life Span” value [1, 13] of the same compound?
Answer: 26%

Question: What about the “Indefinite Survivors” value [1, 13] of the same compound?
Answer: 0

Question: And the “Toxic Deaths” value [1, 13]?
Answer: 0/10

Question: What about the “Percent Increase Life Span” value [1, 14] of the same compound?
Answer: 34%

Question: And the “Indefinite Survivors” value [1, 14]?
Answer: 0

Question: What about the “Toxic Deaths” value [1, 14] of the same compound?
Answer: 0/10

Question: What about the “Percent Increase Life Span” value [1, 15] of the same compound?
Answer: 8%

Question: And the “Indefinite Survivors” value [1, 15]?
Answer: 0

Question: What about the “Toxic Deaths” value [1, 15] of the same compound?
Answer: 0/10

Question: What about the “Percent Increase Life Span” value [1, 16] of the same compound?
Answer: 15%

Question: And the “Indefinite Survivors” value [1, 16]?
Answer: 0

Question: And the “Toxic Deaths” value [1, 16]?
Answer: 0/10

Question: What about the “Percent Increase Life Span” value [1, 17] of the same compound?
Answer: 18%

Question: What about the “Indefinite Survivors” value [1, 17] of the same compound?
Answer: 0

Question: And the “Toxic Deaths” value [1, 17]?
Answer: 1/10

Question: And the “Percent Increase Life Span” value [1, 18]?
Answer: 2%

Question: What about the “Indefinite Survivors” value [1, 18] of the same compound?
Answer: 0

Question: And the “Toxic Deaths” value [1, 18]?
Answer: 4/10

Question: What about the “Percent Increase Life Span” value [1, 19] of the same compound?
Answer: 74%

Question: And the “Indefinite Survivors” value [1, 19]?
Answer: 0

Question: And the “Toxic Deaths” value [1, 19]?
Answer: 0/10

Question: What about the “Percent Increase Life Span” value [1, 20] of the same compound?
Answer: 104%

Question: And the “Indefinite Survivors” value [1, 20]?
Answer: 0

Question: And the “Toxic Deaths” value [1, 20]?
Answer: 0/10

Question: And the “Percent Increase Life Span” value [1, 21]?
Answer: 136%

Question: What about the “Indefinite Survivors” value [1, 21] of the same compound?
Answer: 0

Question: And the “Toxic Deaths” value [1, 21]?
Answer: 0/10

Question: What about the “Percent Increase Life Span” value [1, 22] of the same compound?
Answer: 44%

Question: What about the “Indefinite Survivors” value [1, 22] of the same compound?
Answer: 0

Question: What about the “Toxic Deaths” value [1, 22] of the same compound?
Answer: 0/10

Question: What about the “Percent Inhibition of Tumor” value (6C3HED lymphosarcoma; 0.05 mg/kg, Daily for 8 Days) of the same compound?
Answer: 0%

Question: And the “Toxic Deaths” value (6C3HED lymphosarcoma; 0.05 mg/kg, Daily for 8 Days)?
Answer: 0/10

Question: What about the “Percent Inhibition of Tumor” value (6C3HED lymphosarcoma; 0.1 mg/kg, Daily for 8 Days) of the same compound?
Answer: 0%

Question: And the “Toxic Deaths” value (6C3HED lymphosarcoma; 0.1 mg/kg, Daily for 8 Days)?
Answer: 0/10

Question: What about the “Percent Inhibition of Tumor” value (6C3HED lymphosarcoma; 0.2 mg/kg, Daily for 8 Days) of the same compound?
Answer: 0%

Question: And the “Toxic Deaths” value (6C3HED lymphosarcoma; 0.2 mg/kg, Daily for 8 Days)?
Answer: 0/10

Question: What about the “Percent Inhibition of Tumor” value (6C3HED lymphosarcoma; 0.4 mg/kg, Daily for 8 Days) of the same compound?
Answer: 8%

Question: And the “Toxic Deaths” value (6C3HED lymphosarcoma; 0.4 mg/kg, Daily for 8 Days)?
Answer: 0/10

Question: What about the “Percent Inhibition of Tumor” value (6C3HED lymphosarcoma; 1.25 mg/kg, Days 1,5,9) of the same compound?
Answer: 0%

Question: And the “Toxic Deaths” value (6C3HED lymphosarcoma; 1.25 mg/kg, Days 1,5,9)?
Answer: 0/7

Question: What about the “Percent Inhibition of Tumor” value (6C3HED lymphosarcoma; 2.5 mg/kg, Days 1,5,9) of the same compound?
Answer: 1%

Question: And the “Toxic Deaths” value (6C3HED lymphosarcoma; 2.5 mg/kg, Days 1,5,9)?
Answer: 0/7

Question: And the “Percent Inhibition of Tumor” value (6C3HED lymphosarcoma; 5.0 mg/kg, Days 1,5,9)?
Answer: 49%

Question: What about the “Toxic Deaths” value (6C3HED lymphosarcoma; 5.0 mg/kg, Days 1,5,9) of the same compound?
Answer: 0/7

Question: And the “Percent Inhibition of Tumor” value (6C3HED lymphosarcoma; 10.0 mg/kg, Days 1,5,9)?
Answer: 88%

Question: What about the “Toxic Deaths” value (6C3HED lymphosarcoma; 10.0 mg/kg, Days 1,5,9) of the same compound?
Answer: 0/7

Question: And the “Percent Inhibition of Tumor” value (6C3HED lymphosarcoma; 20.0 mg/kg, Days 1,5,9)?
Answer: 95%

Question: What about the “Toxic Deaths” value (6C3HED lymphosarcoma; 20.0 mg/kg, Days 1,5,9) of the same compound?
Answer: 0/7

Question: And the “Percent Inhibition of Tumor” value ([2]; 1.25 mg/kg)?
Answer: 11%

Question: What about the “Toxic Deaths” value ([2]; 1.25 mg/kg) of the same compound?
Answer: 1/10

Question: What about the “Percent Inhibition of Tumor” value ([2]; 2.5 mg/kg) of the same compound?
Answer: 52%

Question: And the “Toxic Deaths” value ([2]; 2.5 mg/kg)?
Answer: 1/10

Question: What about the “Percent Inhibition of Tumor” value ([2]; 5.0 mg/kg) of the same compound?
Answer: 89%

Question: And the “Toxic Deaths” value ([2]; 5.0 mg/kg)?
Answer: 0/10

Question: And the “Percent Inhibition of Tumor” value ([2]; 10.0 mg/kg)?
Answer: 98%

Question: What about the “Toxic Deaths” value ([2]; 10.0 mg/kg) of the same compound?
Answer: 0/10

Question: And the “Percent Inhibition of Tumor” value ([2]; 20.0 mg/kg)?
Answer: 100%

Question: What about the “Toxic Deaths” value ([2]; 20.0 mg/kg) of the same compound?
Answer: 0/10
